Consider 34 compounds from patent publication US9333202B2, “Non-retinoid antagonists for treatment of age-related macular degeneration and stargardt disease” (THE TRUSTEES OF COLUMBIA UNIVERSITY IN THE CITY OF NEW YORK, priority 2012, dated 2016).

The assay deals with RBP4-TTR interaction (Homo sapiens, UniProt P02753). Kind of assay: HTRF/TR-FRET assay for retinol-dependent RBP4-TTR interaction (1 μM retinol). Type of assay: biochemical. More on the design: human RBP4 fragment (amino acids 19-201) was expressed in the Gold(DE3)pLysS E. coli strain; made in house; host or cells: E. coli Gold(DE3)pLysS (Stratagene), pMAL-c4x vector. The text has this:
Bacterially expressed MBP-RBP4 and untagged TTR were used in this assay. For the use in the TR-FRET assay the maltose binding protein (MBP)-tagged human RBP4 fragment (amino acids 19-201) was expressed in the Gold(DE3)pLysS E. coli strain (Stratagene) using the […] vector. Following cell lysis, recombinant RBP4 was purified from the soluble fraction using the ACTA FPLC system (GE Healthcare) equipped with the 5-ml the MBP Trap HP column. Human untagged TTR was purchased from Calbiochem. Untagged TTR was labeled directly with Eu^3+ Cryptate-NHS using the HTRF Cryptate Labeling kit from CisBio following the manufacturer's recommendations. HTRF assay was performed in white low volume 384 well plates (Greiner-Bio) in a final assay volume of 16 μl per well. The reaction buffer contained 10 mM Tris-HCl pH 7.5, 1 mM DTT, 0.05% NP-40, 0.05% Prionex, 6% glycerol, and 400 mM KF. Each reaction contained 60 nM MBP-RBP4 and 2 nM TTR-Eu along with 26.7 nM of anti-MBP antibody conjugated with d2 (Cisbio). Titration of test compounds in this assay was conducted in the presence of 1 μM retinol. All reactions were assembled in the dark under dim red light and incubated overnight at +4° C. wrapped in aluminum foil. TR-FRET signal was measured in the SpectraMax M5e Multimode Plate Reader (Molecular Device). Fluorescence was excited at 337 nm and two readings per well were taken: Reading 1 for time-gated energy transfer from Eu(K) to d2 (337 nm excitation, 668 nm emission, counting delay 75 microseconds, counting window 100 microseconds) and Reading 2 for Eu(K) time-gated fluorescence (337 nm excitation, 620 nm emission, counting delay 400 microseconds, counting window 400 microseconds). The TR-FRET signal was expressed as the ratio of fluorescence intensity: Flu665/Flu620×10,000.
For orientation: TR-FRET usually uses a lanthanide donor and a delayed reading to cut background.
On to `FC(F)(F)c1cccc(CCN2CCN(c3ncccc3C(F)(F)F)CC2)c1` [Compound 17], for which the “Antagonism of RBP4-TTR interaction in vitro (in words)” value (shortened to “Antagonism of RBP4-TTR interaction”) is “antagonize RBP4-TTR interaction in vitro at biologically significant concentrations”.

Turning to `FC(F)(F)c1cccc(CCN2CCN(c3ncnc4sc5c(c34)CCC5)CC2)c1` [Compound 20], the “Antagonism of RBP4-TTR interaction” value is reported as “antagonize RBP4-TTR interaction in vitro at biologically significant concentrations”.

Turning to `FC(F)(F)c1cccc(CN2CCN(c3ncnc4sc5c(c34)CCC5)CC2)c1` [Compound 21], the “Antagonism of RBP4-TTR interaction” value is given as “antagonize RBP4-TTR interaction in vitro at biologically significant concentrations”.

Regarding `O=C(Cc1ccccc1C(F)(F)F)N1CCN(c2ncnc3sc4c(c23)CCC4)CC1` [Compound 22], the “Antagonism of RBP4-TTR interaction” value is “antagonize RBP4-TTR interaction in vitro at biologically significant concentrations”.

As to `O=C(c1ccc(C(F)(F)F)cc1F)N1CCC(c2ccccc2C(F)(F)F)CC1` [Compound 32], the “Antagonism of RBP4-TTR interaction” value is “antagonize RBP4-TTR interaction in vitro at biologically significant concentrations”.

Regarding `O=C(c1ccc(C(F)(F)F)c(F)c1)N1CCC(c2ccccc2C(F)(F)F)CC1` [Compound 33], the “Antagonism of RBP4-TTR interaction” value was “antagonize RBP4-TTR interaction in vitro at biologically significant concentrations”.

`O=C(c1cccc(C(F)(F)F)c1)N1CCC(c2ccccc2C(F)(F)F)CC1` [Compound 34]: the “Antagonism of RBP4-TTR interaction” value is listed as “antagonize RBP4-TTR interaction in vitro at biologically significant concentrations”.

With `O=C(c1ccc(F)c(C(F)(F)F)c1)N1CCC(c2ccccc2C(F)(F)F)CC1` [Compound 35], the “Antagonism of RBP4-TTR interaction” value is “antagonize RBP4-TTR interaction in vitro at biologically significant concentrations”.

Consider `O=C(c1ccc(Cl)c(C(F)(F)F)c1)N1CCC(c2ccccc2C(F)(F)F)CC1` [Compound 36], for which the “Antagonism of RBP4-TTR interaction” value was “antagonize RBP4-TTR interaction in vitro at biologically significant concentrations”.

For the compound `COC(=O)c1cccc(C(=O)N2CCC(c3ccccc3C(F)(F)F)CC2)c1` [Compound 37], the “Antagonism of RBP4-TTR interaction” value is “antagonize RBP4-TTR interaction in vitro at biologically significant concentrations”.

As for `O=C(Cc1ccccc1C(F)(F)F)N1CCC(c2ccccc2C(F)(F)F)CC1` [Compound 38], the “Antagonism of RBP4-TTR interaction” value was “antagonize RBP4-TTR interaction in vitro at biologically significant concentrations”.

Consider `O=C(c1ccnc(C(F)(F)F)c1)N1CCC(c2ccccc2C(F)(F)F)CC1` [Compound 39], for which the “Antagonism of RBP4-TTR interaction” value is recorded as “antagonize RBP4-TTR interaction in vitro at biologically significant concentrations”.

`O=C(c1cnccc1C(F)(F)F)N1CCC(c2ccccc2C(F)(F)F)CC1` [Compound 40]: the “Antagonism of RBP4-TTR interaction” value was “antagonize RBP4-TTR interaction in vitro at biologically significant concentrations”.

As for `O=C(c1cc(C(F)(F)F)ccn1)N1CCC(c2ccccc2C(F)(F)F)CC1` [Compound 41], the “Antagonism of RBP4-TTR interaction” value is given as “antagonize RBP4-TTR interaction in vitro at biologically significant concentrations”.

As for `FC(F)(F)c1ccccc1C1CCN(c2ncccn2)CC1` [Compound 42], the “Antagonism of RBP4-TTR interaction” value is “antagonize RBP4-TTR interaction in vitro at biologically significant concentrations”.

Take `Cc1ccnc(N2CCC(c3ccccc3C(F)(F)F)CC2)n1` [Compound 43]: the “Antagonism of RBP4-TTR interaction” value is on record as “antagonize RBP4-TTR interaction in vitro at biologically significant concentrations”.

For `FC(F)(F)c1ccnc(N2CCC(c3ccccc3C(F)(F)F)CC2)n1` [Compound 44], the “Antagonism of RBP4-TTR interaction” value is on record as “antagonize RBP4-TTR interaction in vitro at biologically significant concentrations”.

Take `COC(=O)c1cc(C)nc(N2CCC(c3ccccc3C(F)(F)F)CC2)n1` [Compound 45]: the “Antagonism of RBP4-TTR interaction” value was “antagonize RBP4-TTR interaction in vitro at biologically significant concentrations”.

Turning to `FC(F)(F)c1ccccc1C1CCN(c2nccc(-c3ccccc3)n2)CC1` [Compound 46], the “Antagonism of RBP4-TTR interaction” value is “antagonize RBP4-TTR interaction in vitro at biologically significant concentrations”.

For the compound `Fc1cnc(N2CCC(c3ccccc3C(F)(F)F)CC2)nc1` [Compound 47], the “Antagonism of RBP4-TTR interaction” value is given as “antagonize RBP4-TTR interaction in vitro at biologically significant concentrations”.

With `Cn1cnc(C(=O)N2CCC(c3ccccc3C(F)(F)F)CC2)c1` [Compound 49], the “Antagonism of RBP4-TTR interaction” value is “antagonize RBP4-TTR interaction in vitro at biologically significant concentrations”.

`O=C(c1cn(Cc2ccccc2)cn1)N1CCC(c2ccccc2C(F)(F)F)CC1` [Compound 50]: the “Antagonism of RBP4-TTR interaction” value was “antagonize RBP4-TTR interaction in vitro at biologically significant concentrations”.

Take `Cn1cncc1C(=O)N1CCC(c2ccccc2C(F)(F)F)CC1` [Compound 51]: the “Antagonism of RBP4-TTR interaction” value was “antagonize RBP4-TTR interaction in vitro at biologically significant concentrations”.

Regarding `Cn1nc(C(F)(F)F)cc1C(=O)N1CCC(c2ccccc2C(F)(F)F)CC1` [Compound 52], the “Antagonism of RBP4-TTR interaction” value is given as “antagonize RBP4-TTR interaction in vitro at biologically significant concentrations”.

Regarding `O=C(c1cc(C(F)(F)F)[nH]n1)N1CCC(c2ccccc2C(F)(F)F)CC1` [Compound 53], the “Antagonism of RBP4-TTR interaction” value is on record as “antagonize RBP4-TTR interaction in vitro at biologically significant concentrations”.

`O=C(c1nccs1)N1CCC(c2ccccc2C(F)(F)F)CC1` [Compound 54]: the “Antagonism of RBP4-TTR interaction” value is on record as “antagonize RBP4-TTR interaction in vitro at biologically significant concentrations”.

For `O=C(c1ccco1)N1CCC(c2ccccc2C(F)(F)F)CC1` [Compound 55], the “Antagonism of RBP4-TTR interaction” value is listed as “antagonize RBP4-TTR interaction in vitro at biologically significant concentrations”.

Regarding `O=C(O)c1cc(-c2ccccc2)ccc1NC(=O)N1CCC(c2ccccc2C(F)(F)F)CC1` [Compound 56], the “Antagonism of RBP4-TTR interaction” value is on record as “antagonize RBP4-TTR interaction in vitro at biologically significant concentrations”.

On to `O=C(O)c1cc(-c2ccc(F)cc2)ccc1NC(=O)N1CCC(c2ccccc2C(F)(F)F)CC1` [Compound 57], for which the “Antagonism of RBP4-TTR interaction” value is “antagonize RBP4-TTR interaction in vitro at biologically significant concentrations”.

Consider `CS(=O)(=O)c1ccc(-c2ccc(NC(=O)N3CCC(c4ccccc4C(F)(F)F)CC3)c(C(=O)O)c2)cc1` [Compound 58], for which the “Antagonism of RBP4-TTR interaction” value is on record as “antagonize RBP4-TTR interaction in vitro at biologically significant concentrations”.

For the compound `COC(=O)c1ccccc1NC(=O)N1CCC(c2ccccc2C(F)(F)F)CC1` [Compound 59], the “Antagonism of RBP4-TTR interaction” value is “antagonize RBP4-TTR interaction in vitro at biologically significant concentrations”.

Consider `COC(=O)c1ccc(Cl)cc1NC(=O)N1CCC(c2ccccc2C(F)(F)F)CC1` [Compound 60], for which the “Antagonism of RBP4-TTR interaction” value was “antagonize RBP4-TTR interaction in vitro at biologically significant concentrations”.

Regarding `COC(=O)c1cc(Br)ccc1NC(=O)N1CCC(c2ccccc2C(F)(F)F)CC1` [Compound 61], the “Antagonism of RBP4-TTR interaction” value is given as “antagonize RBP4-TTR interaction in vitro at biologically significant concentrations”.

Consider `O=C(O)c1ccccc1NC(=O)N1CCN(c2ncncc2C(F)(F)F)CC1` [Compound 63], for which the “Antagonism of RBP4-TTR interaction” value is reported as “antagonize RBP4-TTR interaction in vitro at biologically significant concentrations”.
